Patent US20110015067A1, “Herbicidal Compositions Comprising Pyroxasulfone” (BASF SE, priority 2008, published 2011)

Key:
Format in all cases: in vivo
[1] = system: AMBEL (Ambrosia artemisifolia); experiment: post-emergence greenhouse test; conditions: 3.75 g ai/ha
Source text: (§1) For the post-emergence treatment, the test plants were first grown to a height of 3 to 20 cm, depending on the plant habit, and only then treated. Here, the herbicidal compositions were suspended or emulsified in water as distribution medium and sprayed using finely distributing nozzles.
(§2) The respective herbicides A and/or safener were formulated as 10% by weight strength suspension concentrate and introduced to the spray liquor with the amount of solvent system used for applying the active compound. Herbicide B and/or safener were used as commercially available formulations and introduced to the spray liquor with the amount of solvent system used for applying the active compound. In the examples, the solvent used was water.
(§3) The test period extended over 20 days. During this time, the plants were tended, and their response to the treatments with active compound was evaluated.
(§4) In the following experiments, the herbicidal activity for the individual herbicide compounds (solo application) and of the mixture was assessed 8 days after treatment (8 DAT) and/or 20 days after treatment (20 DAT).
(§5) The evaluation for the damage caused by the chemical compositions was carried out using a scale from 0 to 100%, compared to the untreated control plants. Here, 0 means no damage and 100 means complete destruction of the plants.

[2] = system: MERAN (Mercurialis annua); experiment: post-emergence greenhouse test; conditions: 7.5 g ai/ha
Source text: as §1, §2, §3, §4, §5

[3] = system: CHEAL (Chenopodium album); experiment: post-emergence greenhouse test; conditions: 15 g ai/ha
Source text: as §1, §2, §3, §4, §5

[4] = system: LOLMU (Lolium multiflorum); experiment: post-emergence greenhouse test; conditions: 3.75 g ai/ha
Source text: as §1, §2, §3, §4, §5

[5] = system: AMBEL (Ambrosia artemisifolia); experiment: pre-emergence greenhouse test
Source text: (§6) For the pre-emergence treatment, directly after sowing the active compounds, which had been suspended or emulsified in water, were applied by means of finely distributed nozzles. The containers were irrigated gently to promote germination and growth and subsequently covered with transparent plastic hoods until plant had rooted. This cover caused uniform germination of the tests plants, unless this was adversely affected by active compounds.
as §2, §3, §4, §5

[6] = system: COMBE (Commelina benghalensis); experiment: pre-emergence greenhouse test; conditions: for observed activity in % destruction: pre-emergence
Source text: as §6, §2, §3, §4, §5

[7] = system: CCHEC (Cenchrus echinatus); experiment: pre-emergence greenhouse test
Source text: as §6, §2, §3, §4, §5

[8] = system: BRAPL (Brachiaria plantaginea); experiment: pre-emergence greenhouse test; conditions: pre-emergence, 15 g ai/ha
Source text: as §6, §2, §3, §4, §5

[9] = system: PANMI (Panicum milliaceum); experiment: pre-emergence greenhouse test
Source text: as §6, §2, §3, §4, §5

SOLNI (Solanum nigrum) = experiment: pre-emergence greenhouse test
Source text: as §6, §2, §3, §4, §5

[10] = system: ECHCG (Echinochloa crus-galli); experiment: pre-emergence greenhouse test; conditions: for observed activity in % destruction: pre-emergence
Source text: as §6, §2, §3, §4, §5

[11] = system: AMARE (Amaranthus retroflexus); experiment: pre-emergence greenhouse test; conditions: for observed activity in % destruction: pre-emergence
Source text: as §6, §2, §3, §4, §5

[12] = system: PANDI (Panicum dichotomiflorum); experiment: pre-emergence greenhouse test; conditions: pre-emergence
Source text: as §6, §2, §3, §4, §5

PHBPU (Ipomoea purpurea) = experiment: pre-emergence greenhouse test; conditions: PHBPU pre-emergence 15 g ai/ha
Source text: as §6, §2, §3, §4, §5

[13] = system: ALOMY (Alopecurus myosuroides); experiment: pre-emergence greenhouse test; conditions: for observed activity in % destruction: pre-emergence
Source text: as §6, §2, §3, §4, §5

ERBVI = experiment: pre-emergence greenhouse test
Source text: as §6, §2, §3, §4, §5

SETVI (Setaria viridis) = experiment: pre-emergence greenhouse test; conditions: for observed activity in % destruction: pre-emergence
Source text: as §6, §2, §3, §4, §5

CC(C)C1(C)N=C(c2nc3ccccc3cc2C(=O)O)NC1=O (centres unmarked) [imazaquin]
65%: observed activity in % destruction (SETVI (Setaria viridis); 15 g ai/ha, 8 DAT)
50%: observed % destruction 20 DAT ([5]; AMBEL pre-emergence 3.75 g ai/ha) | observed activity in % destruction ([6]; 15 g ai/ha, 8 DAT) | observed % destruction 20 DAT ([11]; AMARE pre-emergence 3.75 g ai/ha) | observed activity in % destruction ([11]; 3.75 g ai/ha, 20 DAT) | observed activity in % destruction ([11]; 7.5 g ai/ha, 8 DAT)
35%: observed % destruction 20 DAT ([6]; COMBE pre-emergence 3.75 g ai/ha) | observed activity in % destruction ([6]; 3.75 g ai/ha, 20 DAT) | observed % destruction 20 DAT ([7]; CCHEC pre-emergence 15 g ai/ha)
40%: observed activity in % destruction ([6]; 7.5 g ai/ha, 8 DAT) | observed % destruction 20 DAT ([9]; PANMI pre-emergence 7.5 g ai/ha) | observed % destruction 20 DAT (SOLNI (Solanum nigrum); SOLNI pre-emergence 3.75 g ai/ha) | observed activity in % destruction ([11]; 3.75 g ai/ha, 8 DAT) | observed activity in % destruction ([12]; 15 g ai/ha, 8 DAT) | observed % destruction 20 DAT (PHBPU (Ipomoea purpurea))
20%: observed activity in % destruction ([1]; 8 DAT) | observed activity in % destruction ([1]; 20 DAT) | observed activity in % destruction ([2]; 8 DAT) | observed activity in % destruction ([3]; 8 DAT) | observed activity in % destruction ([6]; 3.75 g ai/ha, 8 DAT) | observed % destruction 20 DAT ([7]; CCHEC pre-emergence 3.75 g ai/ha) | observed % destruction 20 DAT ([7]; CCHEC pre-emergence 7.5 g ai/ha) | observed activity in % destruction ([8]; 8 DAT) | observed % destruction 20 DAT ([10]; ECHCG pre-emergence 15 g ai/ha) | observed activity in % destruction ([10]; 15 g ai/ha, 8 DAT) | observed activity in % destruction ([10]; 15 g ai/ha, 20 DAT) | observed activity in % destruction ([12]; 7.5 g ai/ha, 8 DAT) | observed % destruction 20 DAT (ERBVI; ERBVI pre-emergence 7.5 g ai/ha)
85%: observed % destruction 20 DAT (SOLNI (Solanum nigrum); SOLNI pre-emergence 15 g ai/ha)
80%: observed % destruction 20 DAT ([5]; AMBEL pre-emergence 15 g ai/ha) | observed activity in % destruction ([12]; 15 g ai/ha, 20 DAT)
60%: observed % destruction 20 DAT ([5]; AMBEL pre-emergence 7.5 g ai/ha) | observed activity in % destruction ([8]; 20 DAT) | observed activity in % destruction ([11]; 7.5 g ai/ha, 20 DAT)
70%: observed activity in % destruction ([6]; 15 g ai/ha, 20 DAT) | observed % destruction 20 DAT (SOLNI (Solanum nigrum); SOLNI pre-emergence 7.5 g ai/ha) | observed % destruction 20 DAT ([11]; AMARE pre-emergence 15 g ai/ha)
75%: observed activity in % destruction ([12]; 7.5 g ai/ha, 20 DAT) | observed % destruction 20 DAT ([13]; ALOMY pre-emergence 15 g ai/ha) | observed activity in % destruction ([13]; 15 g ai/ha, 20 DAT) | observed % destruction 20 DAT (SETVI (Setaria viridis); SETVI pre-emergence 15 g ai/ha) | observed activity in % destruction (SETVI (Setaria viridis); 15 g ai/ha, 20 DAT)
10%: observed activity in % destruction ([3]; 20 DAT)
0%: observed activity in % destruction ([2]; 20 DAT) | observed activity in % destruction ([4]; 8 DAT) | observed activity in % destruction ([4]; 20 DAT) | observed % destruction 20 DAT ([10]; ECHCG pre-emergence 3.75 g ai/ha) | observed % destruction 20 DAT ([10]; ECHCG pre-emergence 7.5 g ai/ha) | observed activity in % destruction ([10]; 7.5 g ai/ha, 8 DAT) | observed activity in % destruction ([10]; 7.5 g ai/ha, 20 DAT) | observed activity in % destruction ([12]; 3.75 g ai/ha, 8 DAT) | observed activity in % destruction ([13]; 3.75 g ai/ha, 8 DAT) | observed % destruction 20 DAT (ERBVI; ERBVI pre-emergence 3.75 g ai/ha)
45%: observed % destruction 20 DAT ([6]; COMBE pre-emergence 7.5 g ai/ha) | observed activity in % destruction ([6]; 7.5 g ai/ha, 20 DAT) | observed % destruction 20 DAT ([9]; PANMI pre-emergence 15 g ai/ha) | observed activity in % destruction ([12]; 3.75 g ai/ha, 20 DAT)
30%: observed % destruction 20 DAT ([9]; PANMI pre-emergence 3.75 g ai/ha) | observed activity in % destruction ([13]; 3.75 g ai/ha, 20 DAT) | observed activity in % destruction ([13]; 15 g ai/ha, 8 DAT) | observed activity in % destruction (SETVI (Setaria viridis); 3.75 g ai/ha, 8 DAT) | observed activity in % destruction (SETVI (Setaria viridis); 3.75 g ai/ha, 20 DAT)
